A word on the Ki: it is the dissociation constant of the complex between target and ligand, obtained from inhibition or displacement. Higher therefore signals lower affinity.

Structures are written as SMILES. Calls of active or inactive are those of the source. The calls are words filed in the database; no cut-off is given here.

The target in assay [1] is T1, D(3) dopamine receptor (Homo sapiens, UniProt P35462). The experiment in a line: Displacement of [3H]N-methylspiperone from human cloned D3 dopamine receptor expressed in HEKT cells incubated for 90 mins by scintillation counting based radioligand binding assay. The class given is cell-based. Background: Displacement assays read how much labelled ligand stays bound in the presence of the test substance.

Assay [2] deals with T2, D(1A) dopamine receptor (Homo sapiens, UniProt P21728). The experiment in a line: Displacement of [3H]SCH-23390 from human cloned D1 dopamine receptor expressed in HEKT cells incubated for 90 mins by scintillation counting based radioligand binding assay. The class given is cell-based.
Assay [3] deals with T3, D(4) dopamine receptor (Homo sapiens, UniProt P21917).
T3 sequence (P21917 whole entry): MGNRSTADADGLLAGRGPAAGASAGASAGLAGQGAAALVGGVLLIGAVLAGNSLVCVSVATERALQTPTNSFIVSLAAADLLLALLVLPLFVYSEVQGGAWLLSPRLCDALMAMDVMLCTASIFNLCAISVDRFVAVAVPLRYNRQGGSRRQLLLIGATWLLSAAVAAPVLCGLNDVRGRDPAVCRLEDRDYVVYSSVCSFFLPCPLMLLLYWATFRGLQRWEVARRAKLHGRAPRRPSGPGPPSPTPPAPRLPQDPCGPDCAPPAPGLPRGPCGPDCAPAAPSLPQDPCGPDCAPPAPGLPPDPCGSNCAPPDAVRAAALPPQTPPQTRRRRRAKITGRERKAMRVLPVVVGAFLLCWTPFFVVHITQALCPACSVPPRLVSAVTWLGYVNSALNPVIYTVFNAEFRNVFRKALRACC

The target in assay [4] is T1, D(3) dopamine receptor. The experiment in a line: Binding affinity to human cloned D3 dopamine receptor incubated for 90 mins by radioligand binding assay.
Assay [5] addresses T3, D(4) dopamine receptor. The experiment in a line: Binding affinity to human cloned D4 dopamine receptor incubated for 90 mins by radioligand binding assay.
The target of assay [6] is T2, D(1A) dopamine receptor. The experiment in a line: Displacement of [3H]SCH-23390 from human cloned D1 dopamine receptor incubated for 90 mins by radioligand binding assay.
In assay [7] the target is T4, D(2) dopamine receptor (Homo sapiens, UniProt P14416). The experiment in a line: Displacement of [3H]spiperone from human cloned D2 dopamine receptor incubated for 90 mins by radioligand binding assay.
For assay [8], the target named is T5, D(1B) dopamine receptor (Homo sapiens, UniProt P21918). The experiment in a line: Binding affinity to human cloned D5 dopamine receptor incubated for 90 mins by radioligand binding assay.
Assay [9] concerns the target T5, D(1B) dopamine receptor. The experiment in a line: Displacement of [3H]SCH-23390 from human cloned D5 dopamine receptor expressed in HEKT cells incubated for 90 mins by scintillation counting based radioligand binding assay. The class given is cell-based.
The species named for a further assay is Homo sapiens. The experiment in a line: Selectivity index, ratio of Ki for human cloned D1 dopamine receptor to Ki for human cloned D5 dopamine receptor.
Assay [10] has as its target T2, D(1A) dopamine receptor. The experiment in a line: Antagonist activity at human D1 dopamine receptor expressed in HEK293 cells assessed as inhibition of SKF38393-induced intracellular calcium level preincubated at 10 uM by oregon green staining based microplate fluorescence reader analysis. The class given is functional, cell-based. Background: A change in cytosolic calcium serves as a functional read-out for many receptors and channels.

In assay [11] the target is T4, D(2) dopamine receptor. The experiment in a line: Antagonist activity at human D2L dopamine receptor expressed in HEK293 cells assessed as inhibition of quinpirole-induced intracellular calcium level preincubated at 10 uM by oregon green staining based microplate fluorescence reader analysis. In kind it is functional, cell-based.
The target in assay [12] is T5, D(1B) dopamine receptor. The experiment in a line: Antagonist activity at human D5 dopamine receptor expressed in HEK293 cells assessed as inhibition of SKF38393-induced intracellular calcium level preincubated at 10 uM by oregon green staining based microplate fluorescence reader analysis. In kind it is functional, cell-based.

T1 sequence (P35462 whole entry): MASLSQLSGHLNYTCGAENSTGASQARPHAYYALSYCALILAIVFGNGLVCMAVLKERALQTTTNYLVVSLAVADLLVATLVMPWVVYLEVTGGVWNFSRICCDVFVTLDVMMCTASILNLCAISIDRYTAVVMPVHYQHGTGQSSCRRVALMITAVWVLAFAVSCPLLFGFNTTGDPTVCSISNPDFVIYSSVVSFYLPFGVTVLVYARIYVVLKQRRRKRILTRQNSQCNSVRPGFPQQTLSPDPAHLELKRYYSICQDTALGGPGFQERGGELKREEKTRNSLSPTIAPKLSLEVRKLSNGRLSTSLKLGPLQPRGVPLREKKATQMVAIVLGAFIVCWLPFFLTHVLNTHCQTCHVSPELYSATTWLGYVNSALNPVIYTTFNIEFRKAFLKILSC
T5 sequence (P21918 whole entry): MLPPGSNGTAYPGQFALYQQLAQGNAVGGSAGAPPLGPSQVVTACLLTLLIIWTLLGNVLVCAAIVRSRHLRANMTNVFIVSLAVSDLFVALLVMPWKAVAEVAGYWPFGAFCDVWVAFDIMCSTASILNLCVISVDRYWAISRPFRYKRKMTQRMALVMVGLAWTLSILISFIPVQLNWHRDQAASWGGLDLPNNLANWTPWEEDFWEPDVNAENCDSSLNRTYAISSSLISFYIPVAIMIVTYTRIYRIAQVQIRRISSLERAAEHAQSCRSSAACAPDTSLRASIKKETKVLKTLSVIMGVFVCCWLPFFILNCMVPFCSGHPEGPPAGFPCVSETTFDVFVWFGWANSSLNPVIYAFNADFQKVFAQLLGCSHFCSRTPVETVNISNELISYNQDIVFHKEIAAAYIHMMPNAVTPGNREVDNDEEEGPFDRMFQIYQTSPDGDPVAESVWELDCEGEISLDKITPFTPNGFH
T2 sequence (P21728 whole entry): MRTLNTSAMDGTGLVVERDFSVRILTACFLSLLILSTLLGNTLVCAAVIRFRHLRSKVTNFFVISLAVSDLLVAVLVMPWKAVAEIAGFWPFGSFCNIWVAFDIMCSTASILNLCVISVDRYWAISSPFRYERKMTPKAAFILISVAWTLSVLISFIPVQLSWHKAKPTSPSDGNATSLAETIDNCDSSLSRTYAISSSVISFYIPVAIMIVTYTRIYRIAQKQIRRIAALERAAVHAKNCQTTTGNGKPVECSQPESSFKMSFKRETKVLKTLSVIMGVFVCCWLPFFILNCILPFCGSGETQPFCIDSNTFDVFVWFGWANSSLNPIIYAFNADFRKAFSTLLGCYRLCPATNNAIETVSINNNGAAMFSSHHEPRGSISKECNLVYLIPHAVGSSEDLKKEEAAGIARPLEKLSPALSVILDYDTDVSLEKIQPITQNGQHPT
T4 sequence (P14416 whole entry): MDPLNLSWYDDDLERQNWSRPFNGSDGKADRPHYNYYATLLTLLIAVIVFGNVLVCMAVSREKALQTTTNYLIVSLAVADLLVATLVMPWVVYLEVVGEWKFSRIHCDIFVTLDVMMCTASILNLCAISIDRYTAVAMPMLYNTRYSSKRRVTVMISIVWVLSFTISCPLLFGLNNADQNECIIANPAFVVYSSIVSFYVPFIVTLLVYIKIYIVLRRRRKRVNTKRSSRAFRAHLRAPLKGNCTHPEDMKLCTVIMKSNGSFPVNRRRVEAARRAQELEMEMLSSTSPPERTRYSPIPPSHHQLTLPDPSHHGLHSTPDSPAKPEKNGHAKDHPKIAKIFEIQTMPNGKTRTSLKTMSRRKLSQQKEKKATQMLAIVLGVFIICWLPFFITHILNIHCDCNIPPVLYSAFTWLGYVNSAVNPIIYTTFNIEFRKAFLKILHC

For `CN1CC2c3ccccc3Oc3ccc(Cl)cc3C2C1` (configuration not stated) [ASENAPINE], the Ki on D(3) dopamine receptor [1] was found to be 9.4 nM; at D(1A) dopamine receptor [2], 8.9 nM; on D(4) dopamine receptor [3], 9 nM.
Consider `CCOC(=O)N1CCc2ccccc2Cc2sc3ccccc3c2CC1`, for which the Ki at D(3) dopamine receptor [4], at D(4) dopamine receptor [5], at D(1A) dopamine receptor [6], at D(2) dopamine receptor [7] and at D(1B) dopamine receptor [8] was over 1000 nM each time.
At D(1B) dopamine receptor [9], `Cc1cc2c(s1)Nc1ccccc1N=C2N1CCN(C)CC1` [OLANZAPINE] came in with a Ki of 90 nM.
For the compound `CCOC(=O)N1CCc2ccccc2Cc2sccc2CC1`, the inhibition constant Ki at D(3) dopamine receptor [4], at D(4) dopamine receptor [5], on D(1A) dopamine receptor [6], at D(2) dopamine receptor [7] and at D(1B) dopamine receptor [8] was over 1000 nM each time.
Turning to `CN1CCc2ccccc2Cc2sc3ccccc3c2CC1`, the inhibition constant (Ki) at D(3) dopamine receptor [4] was 18 nM; at D(4) dopamine receptor [5] it was 72 nM; at D(1A) dopamine receptor [6], 40 nM; at D(2) dopamine receptor [7], 1.5 nM; on D(1B) dopamine receptor [8], 1.9 nM. For the same compound, the Ratio Ki in the assay filed under Homo sapiens is 20. The inhibition entry at D(1A) dopamine receptor [10], at D(2) dopamine receptor [11] and at D(1B) dopamine receptor [12] was “Active” each time.
For `CCOC(=O)N1CCc2ccccc2Cc2ccsc2CC1`, the inhibition constant Ki at D(3) dopamine receptor [4], at D(4) dopamine receptor [5], at D(1A) dopamine receptor [6], on D(2) dopamine receptor [7] and on D(1B) dopamine receptor [8] was over 1000 nM throughout.
Turning to `CN1CCc2ccccc2Cc2sccc2CC1`, the Ki at D(3) dopamine receptor [4] was found to be 24 nM; at D(4) dopamine receptor [5], 188 nM; on D(1A) dopamine receptor [6], 60 nM; on D(2) dopamine receptor [7], 45 nM; on D(1B) dopamine receptor [8], 3 nM. Moreover, the Ratio Ki in the assay listed under Homo sapiens came to 20. For the same compound, the inhibition result at D(1A) dopamine receptor [10], at D(2) dopamine receptor [11] and at D(1B) dopamine receptor [12] was “Active” throughout.
